# ChEMBL document CHEMBL3856228, “Design and Synthesis of Pyridone-Containing 3,4-Dihydroisoquinoline-1(2H)-ones as a Novel Class of Enhancer of Zeste Homolog 2 (EZH2) Inhibitors” (J Med Chem, 2016)
# Target: T1, Histone-lysine N-methyltransferase EZH2 (Homo sapiens, UniProt O75530+Q09028+Q15022+Q15910)
# Test: Inhibition of wild-type EZH2 (unknown origin) expressed in baculovirus infected SF9 cells co-expressing SUZ12/EED/RbAp48 complex using HeLa cells derived oligonucleosomes as substrate after 60 mins in presence of [3H] SAM by scintillation counting
# Conditions: not given
# T1 sequence (Q15910 whole entry, one chain of several): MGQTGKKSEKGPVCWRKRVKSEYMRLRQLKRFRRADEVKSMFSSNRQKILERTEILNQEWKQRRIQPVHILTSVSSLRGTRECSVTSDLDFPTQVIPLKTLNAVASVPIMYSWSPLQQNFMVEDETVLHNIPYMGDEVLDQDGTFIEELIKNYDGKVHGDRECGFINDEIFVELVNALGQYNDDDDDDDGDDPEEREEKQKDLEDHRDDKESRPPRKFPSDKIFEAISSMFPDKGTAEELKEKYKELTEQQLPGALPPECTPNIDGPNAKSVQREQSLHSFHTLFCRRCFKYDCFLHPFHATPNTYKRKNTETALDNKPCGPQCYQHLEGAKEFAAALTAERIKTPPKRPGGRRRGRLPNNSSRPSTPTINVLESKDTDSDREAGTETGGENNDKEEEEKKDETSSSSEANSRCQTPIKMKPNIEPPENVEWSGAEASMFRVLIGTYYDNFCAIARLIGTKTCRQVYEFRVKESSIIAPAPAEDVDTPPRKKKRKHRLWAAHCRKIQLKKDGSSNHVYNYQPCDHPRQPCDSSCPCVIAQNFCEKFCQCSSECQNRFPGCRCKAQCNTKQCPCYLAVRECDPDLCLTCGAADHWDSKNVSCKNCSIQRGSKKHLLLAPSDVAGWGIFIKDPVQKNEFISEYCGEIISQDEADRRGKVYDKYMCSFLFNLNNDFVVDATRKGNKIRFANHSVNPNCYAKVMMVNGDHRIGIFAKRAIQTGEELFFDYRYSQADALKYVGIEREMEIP
row,Structure (SMILES),IC50 [nM]
1,Cc1cc(C)c(CN2CCc3c(C)cc(O[C@@H]4CCOC4)c(Cl)c3C2=O)c(=O)[nH]1,18
2,Cc1cc(C)c(CN2CCc3c(Cl)cc(-c4c(C)n[nH]c4C)c(Cl)c3C2=O)c(=O)[nH]1,16
3,COc1cccc(C(=O)NCc2c(C)cc(C)[nH]c2=O)c1O,44000
4,COc1cccc(C(=O)NCc2c(C)cc(C)[nH]c2=O)c1F,> 150000

# Further lines, results first:
row,IC50 [nM],Structure (SMILES)
1,650,COc1ccc2c(c1Cl)C(=O)N(Cc1c(C)cc(C)[nH]c1=O)CCO2
2,> 140000,COc1cccc(C(=O)NCc2c(C)cc(C)[nH]c2=O)c1OC
3,160,Cc1cc(C)c(CN2CCc3ccc(OC(C)C)c(C)c3C2=O)c(=O)[nH]1

# System: not listed separately
# Test: Lipophilicity, log D of the compound at pH 7.4
# Conditions: buffer
row,Structure (SMILES),logD
1,Cc1cc(C)c(CN2CCc3c(C)cc(O[C@@H]4CCOC4)c(Cl)c3C2=O)c(=O)[nH]1,2.1
2,Cc1cc(C)c(CN2CCc3c(Cl)cc(-c4c(C)n[nH]c4C)c(Cl)c3C2=O)c(=O)[nH]1,3.4
3,COc1cccc(C(=O)NCc2c(C)cc(C)[nH]c2=O)c1O,1.9
4,COc1cccc(C(=O)NCc2c(C)cc(C)[nH]c2=O)c1F,1.4

# Continued, values first:
row,logD,Structure (SMILES)
1,1.3,COc1ccc2c(c1Cl)C(=O)N(Cc1c(C)cc(C)[nH]c1=O)CCO2
2,1.7,COc1cccc(C(=O)NCc2c(C)cc(C)[nH]c2=O)c1OC

# System: not listed separately
# Test: Intrinsic clearance in human liver microsomes at 1 uM after 45 mins in presence of NADPH by LC-MS/MS analysis
# Type: ADME
# Conditions: read-out: CLH
row,microsomal CLint at 1 µM [µL/min/mg],Structure (SMILES)
1,40,COc1ccc2c(c1Cl)C(=O)N(Cc1c(C)cc(C)[nH]c1=O)CCO2
2,102,Cc1cc(C)c(CN2CCc3ccc(OC(C)C)c(C)c3C2=O)c(=O)[nH]1

# Target: T1, Histone-lysine N-methyltransferase EZH2
# Test: Binding affinity to EZH2 (unknown origin) expressed in baculovirus infected SF9 cells co-expressing SUZ12/EED/RbAp48 complex by ITC analysis
# Conditions: not given
row,Kd [nM],Structure (SMILES)
1,37.4,Cc1cc(C)c(CN2CCc3ccc(OC(C)C)c(C)c3C2=O)c(=O)[nH]1

# Target: Histone-lysine N-methyltransferase EZH2 (Homo sapiens, UniProt O75530+Q09028+Q15022+Q15910, Y641N)
# Test: Inhibition of EZH2 Y641N mutant (unknown origin) expressed in baculovirus infected SF9 cells co-expressing SUZ12/EED/RbAp48 complex using HeLa cells derived oligonucleosomes as substrate after 60 mins in presence of [3H] SAM by scintillation counting
# Conditions: not given
# Histone-lysine N-methyltransferase EZH2 (Homo sapiens, UniProt O75530+Q09028+Q15022+Q15910, Y641N), sequence (Q15910 whole entry Y641N, one chain of several): as the sequence (Q15910 whole entry, one chain of several) above, with Y641N counted along it
row,Structure (SMILES),IC50 [nM]
1,Cc1cc(C)c(CN2CCc3c(C)cc(O[C@@H]4CCOC4)c(Cl)c3C2=O)c(=O)[nH]1,61
2,Cc1cc(C)c(CN2CCc3c(Cl)cc(-c4c(C)n[nH]c4C)c(Cl)c3C2=O)c(=O)[nH]1,82

# Target: Histone-lysine N-methyltransferase EZH2 (Homo sapiens, UniProt Q15910)
# Test: Inhibition of EZH2 in human KARPAS422 cells assessed as reduction in H3K27Me3 levels after 72 hrs by ELISA
# Type: cell-based
# Conditions: not given
# Histone-lysine N-methyltransferase EZH2 (Homo sapiens, UniProt Q15910), sequence (Q15910 whole entry): as the sequence (Q15910 whole entry, one chain of several) above
row,Structure (SMILES),IC50 [nM]
1,Cc1cc(C)c(CN2CCc3c(C)cc(O[C@@H]4CCOC4)c(Cl)c3C2=O)c(=O)[nH]1,290
2,Cc1cc(C)c(CN2CCc3c(Cl)cc(-c4c(C)n[nH]c4C)c(Cl)c3C2=O)c(=O)[nH]1,502

# System: not listed separately
# Test: Cytotoxicity against human KARPAS422 cells assessed as inhibition of cell proliferation after 72 hrs
# Type: functional, cell-based
# Conditions: KARPAS-422, 72 h
row,Structure (SMILES),IC50 [nM]
1,Cc1cc(C)c(CN2CCc3c(C)cc(O[C@@H]4CCOC4)c(Cl)c3C2=O)c(=O)[nH]1,406
2,Cc1cc(C)c(CN2CCc3c(Cl)cc(-c4c(C)n[nH]c4C)c(Cl)c3C2=O)c(=O)[nH]1,959
